The structures appear in SMILES notation.

The nature of the data set: gradient 5% acetonitrile 3 min, to 50% in 2 min, to 85% in 15 min, held 3 min, 100 µL/min. To be noted: column: Zorbax Extend-C18 2.1 x 50 mm; eluents: water / acetonitrile, 0.1% formic acid. In outline:
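The system's dead and dwell volumes were 40 μL and 900 μL, with a Zorbax Extend-C18 column (2.1 × 50 mm, 1.8 μm) run at 100 μL/min in water and acetonitrile containing 0.1% formic acid each. Pure standards were analyzed in mixtures of ~100 molecules by HPLC–quadrupole time-of-flight mass spectrometry in positive and negative ionization mode. Retention time was assigned from computationally picked, manually inspected adduct peaks.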
In turn, `COc1cc(C(=O)NCC(c2cccs2)N2CCOCC2)cc(OC)c1OC` (stereo not given) registered an RP-LC retention time of 607 s.
Under `COc1ccc(OC)c(NC(=O)Cn2cccc2-c2nnc(C3CC3)o2)c1` stands 704 s; under `CCc1ccc(NC(=O)N(CC)c2nc(-c3ccc(C4CCCCC4)cc3)cs2)cc1`, 641 s.
As to `CCc1nc(OCC(=O)Nc2cccc(Br)c2)c2ccccc2n1`, the RP-LC retention time is 889 s.
With `CN(CC(=O)NCc1ccncc1)c1nc2c(Cl)cccc2s1`, the RP-LC retention time was 564 s.
The figure for `CN1c2ccc(F)cc2C(=O)NC12CCN(C(=O)Cc1ccccc1)CC2` is 764 s; for `COC(=O)c1ccc(Oc2cc(C)nc(-n3nc(C)cc3C)n2)cc1` it is 912 s; for `CCc1cccc(NC(=O)C2CC(=O)N(c3ccc4c(c3)CCN4C(C)=O)C2)c1` (stereo not given) it is 707 s.
In turn, `Fc1cccc(-c2noc(-c3cc(N4CCOCC4)nc4ccccc34)n2)c1` came in with an RP-LC retention time of 1240 s.
Under `Cc1ccc(-c2cc(C(=O)NCCc3ccc(S(N)(=O)=O)cc3)c(C)[nH]2)cc1C` stands 794 s; under `COCCNC(=O)NC1CCN(c2nc3cccnc3n(Cc3ccc(C)cc3)c2=O)CC1`, 882 s; under `Cc1ccc2oc(-c3nnc(C(=O)NCCCN4CCOCC4)o3)c(C)c2c1`, 668 s.
Turning to `C=C1C(=O)OC2CC(C)C3(O)CCC(=O)C3(C)CC12` (stereo not given), the RP-LC retention time amounted to 775 s.
Under `CCn1cnc(S(=O)(=O)N2CCC(C(=O)Nc3ncccc3C)CC2)c1` stands 570 s; under `CCOc1ccccc1-c1noc(Cn2c(=O)n(C(C)C)c(=O)c3ccccc32)n1`, 1090 s; under `O=C(Nc1ccc(Br)cc1F)C1CCCN(C(=O)c2ccccc2F)C1` (stereo not given), 943 s.
With `CCOc1ccc(-n2ccn3cc(-c4ccc(F)cc4F)nc3c2=O)cc1`, the RP-LC retention time was found to be 916 s.
`Cc1cc(C)cc(NC(=O)N2CCN(CCn3c(-c4ccncc4)nc4cccnc43)CC2)c1` showed an RP-LC retention time of 627 s.
The figure for `CC(=O)Nc1ccc(NC(=O)c2nn(-c3ccc(F)cc3)c3ccccc3c2=O)cc1` is 778 s.
Under `COc1ccccc1CNC1=NCCNC12CCN(S(=O)(=O)c1ccc(C)cc1)CC2` stands 743 s; under `NC(=O)c1cc(-c2ccccc2)n[nH]1`, 623 s; under `CCn1nnc2ccc(-c3noc(-c4ccccc4)n3)cc21`, 1040 s.
The figure for `CCC(=O)N1CCCn2nc(-c3cccc(F)c3)cc2C1` is 735 s; for `CNC(=O)NC1CCN(C(=O)c2cccc(F)c2)C1` (stereo not given) it is 628 s; for `CCCn1cc(C2=CCN(S(=O)(=O)c3c(C)nn(C)c3C)CC2)c2cccnc21` it is 896 s.
`Cc1cc(C)c2c(N)c(C(=O)Nc3cccc4cccnc34)sc2n1` showed an RP-LC retention time of 1080 s.
Take `O=C(Cc1ccsc1)NCCC1CCN(C(=O)Nc2ccccc2)CC1`: the RP-LC retention time is 792 s.
`COc1ccc(N2Cc3cccc(C(=O)O)c3C2=O)cc1` showed an RP-LC retention time of 816 s.
Under `COc1ccc(NC2=NS(=O)(=O)C(c3ccccc3)=C2C)cc1OC` stands 802 s; under `O=C(c1cncc(Br)c1)N1CCN(C(=O)c2cc(-c3ccncc3)n[nH]2)CC1`, 578 s.
For `COc1ccccc1-c1noc(Cn2c(=O)n(CCc3ccccc3)c(=O)c3sccc32)n1`, the RP-LC retention time was 1030 s.
Under `COc1ccccc1-c1csc(NC(=O)Cc2csc(-c3ccccc3)n2)n1` stands 1150 s; under `Cc1nc(-c2ccncc2)nc2c1CCC(=O)N2CCC1=CCCCC1`, 912 s; under `CCOC(=O)N1CCC(NC(=O)C2(c3ccc(F)cc3)CC2)CC1`, 796 s.
The figure for `O=C1CN(C(=O)COc2cccc3ccccc23)c2ccccc2N1` is 861 s.
The figure for `COc1ccc(OC)c(CNC(=O)c2c(N3CCCC3=O)c3cc(F)ccc3n2C)c1` is 904 s; for `Cc1cccc(C)c1Nc1c(-c2ccccc2F)nc2ccc(Br)cn12` it is 893 s; for `COc1ccc2c(C)c(CCC(=O)N3CCC(C(N)=O)CC3)c(=O)oc2c1C` it is 670 s.
In the case of `COc1ccc(-c2c(C(=O)NCc3cccnc3)nn3c(C)cc(C)nc23)cc1S(=O)(=O)N1CCCC1`, the RP-LC retention time came to 638 s.
The figure for `CCn1cnc2cc(CNC(=O)Cc3ccsc3)ccc21` is 578 s; for `Cc1ccc(N2CCN(Cc3nc4nc(C)cc(N5CCCC5)n4n3)CC2)cc1` it is 639 s.
Regarding `Brc1ccc(-c2csc(Cc3nc(-c4ccc5c(c4)OCO5)no3)n2)cc1`, the RP-LC retention time was 1300 s.
As for `Cc1cc(F)ccc1NC(=O)C1CCCN(S(=O)(=O)c2c[nH]c(C(=O)N3CCCCCC3)c2)C1` (stereo not given), the RP-LC retention time was 857 s.
As for `COCc1nc2cccnc2n1C1CCN(C(=O)Nc2ccc(Br)cc2F)CC1`, the RP-LC retention time worked out at 746 s.
`O=C1[C@H]2CN(Cc3cc(Cl)ccc3F)C[C@H]2C(=O)N1CCc1ccccc1` came in with an RP-LC retention time of 840 s.
`CCNc1cc(N2CCCC(CCC(=O)Nc3ccc(OC)cc3)C2)ncn1` (stereo not given) came in with an RP-LC retention time of 659 s.
Turning to `CCOc1cccc(-c2noc(Cn3c(=O)n(CCCOC)c(=O)c4ccccc43)n2)c1`, the RP-LC retention time is 1040 s.
Compound `CCc1cc(-c2csc(S(=O)(=O)NCCCN3CCC(C)CC3)c2)on1` registered an RP-LC retention time of 677 s.
The compound `Cc1ccc(-c2noc(C3CCCN3C(=O)C3CC(=O)N(c4ccc(C)cc4)C3)n2)cc1` (stereo not given) registered an RP-LC retention time of 989 s.
The figure for `CCOc1ccc(C2c3[nH]c4ccccc4c3CCN2C(=O)c2ccncc2)cc1` (stereo not given) is 948 s; for `COc1ccc(-c2nnc(Cc3nc(-c4ccc(C)cc4)no3)o2)cc1OC` it is 762 s.
For the compound `CC1CCN(C(=O)C(=O)NCc2n[nH]c(=O)c3ccccc23)CC1`, the RP-LC retention time stood at 639 s.
Under `Cc1cc(C)n(CCNC(=O)C(=O)Nc2ccc(Cl)cn2)n1` stands 692 s; under `C[C@]12CCC3[C@@H](CC[C@@H]4C[C@H](O)CC[C@]34C)[C@@H]1CCC2=O` (stereo not given in full), 992 s; under `O=c1c2cc(-c3cccs3)nn2cnn1Cc1nc(-c2cccc(C(F)(F)F)c2)no1`, 1140 s.
Compound `COc1ncccc1CNC(=O)c1cccs1` yielded an RP-LC retention time of 694 s.
Consider `CCN1C(=O)COc2ccc(-c3noc(CNS(=O)(=O)c4ccc(F)cc4)n3)cc21`, for which the RP-LC retention time is 860 s.
Consider `O=C(CN1C(=O)C(C(=O)N2CCCC2)Sc2ccccc21)NCc1ccc(Br)cc1` (stereo not given), for which the RP-LC retention time was 971 s.
With `Cc1cccc(CN2CCCn3nc(C(=O)NCc4ccco4)cc3C2=O)c1`, the RP-LC retention time was found to be 810 s.
`COC(=O)c1ccccc1NC(=O)CCn1c(=O)oc2ccccc21` yielded an RP-LC retention time of 825 s.
The compound `Cc1ccccc1-c1noc(Cn2nc(-c3ccc4c(c3)OCO4)ccc2=O)n1` yielded an RP-LC retention time of 943 s.
The figure for `CC12CC(c3ccccc3O1)C(C(=O)Nc1nc(-c3ccccc3)cs1)C(=O)N2` (stereo not given) is 996 s.
Consider `COC(=O)Cn1c(C)cc(=O)n2nc(-c3cccc(C)c3)nc12`, for which the RP-LC retention time came out at 784 s.
For `Fc1ccc(C2Cn3cnc(-c4nc(-c5cccs5)no4)c3CO2)cc1` (stereo not given), the RP-LC retention time was determined as 1010 s.
As to `COCc1c(C(=O)O)nnn1-c1ccc2c(c1)CCC2`, the RP-LC retention time was 777 s.
With `CCn1cnc(S(=O)(=O)N2CCC(C(=O)NCCC3=CCCCC3)CC2)c1`, the RP-LC retention time is 761 s.
The figure for `Cc1cc(C)nc(Nc2nc(CC(=O)N3CCN(C4CCCCC4)CC3)cs2)n1` is 558 s.
The figure for `CC(C)C(NC(=O)Nc1ccc2c(c1)OCO2)C(=O)N1CCc2ccccc21` (stereo not given) is 898 s; for `O=C(c1ccc(F)cc1F)N1CCC2(CC1)OCC(C(=O)N1CCCC1)N2C(=O)c1ccccc1` (stereo not given) it is 698 s; for `Cc1[nH]c(C)c(S(=O)(=O)N2CCC(C(=O)N3CCc4ccccc43)CC2)c1C(=O)N1CCCC1` it is 716 s.
The figure for `COc1ccc(-c2csc(NCCc3ccc(OC)c(OC)c3)n2)cc1` is 792 s; for `COc1ccc(NC(=O)C2(C)CCCCC(=O)N2)cc1F` (stereo not given) it is 690 s; for `Cc1cc2c(cc1S(=O)(=O)N1CCCC1C(=O)N1CCOCC1)OC(C)C(=O)N2` (stereo not given) it is 638 s.
In turn, `Cc1csc(NC(=O)Cn2nc3c(cc2=O)CCCC3)n1` gave an RP-LC retention time of 683 s.
Turning to `CCc1ccc(NC(=O)C2CCCN(c3ccc(=O)n(-c4cccc(Cl)c4)n3)C2)cc1` (stereo not given), the RP-LC retention time came to 922 s.
Under `Nc1nc(-c2ccc(Cl)cc2)nn1C(=O)c1ccc(Cl)cc1` stands 1170 s.
Consider `Cc1cc2ncn(S(=O)(=O)N3CCCC3)c2cc1C`, for which the RP-LC retention time was determined as 837 s.
Under `COc1cccc(Nc2c(-c3ccc(OC)c(OC)c3)nc3cnccn23)c1` stands 794 s; under `O=C(c1ccsc1)N1CCC[C@H]1c1nc(C2CCOCC2)n[nH]1`, 592 s; under `Cc1cc(C)n(Cc2nc(-c3ccc(NC(=O)Cc4ccc(Cl)cc4)cc3)oc2C)n1`, 997 s.

The values are drawn from the METLIN SMRT retention time set (Domingo-Almenara et al. 2019).
